Measured values taken from patent publication EP4691485A1, “MUCOSAL ADJUVANT” (priority 2023, dated 2024).

Tests used:
Assay type in all cases: in vivo, BALB/c mice
[1] = test system: Influenza HA protein antigen (A/California/7/2009(H1N1)pdm); assay: ELISA of antigen-specific IgA and IgG after nasal vaccination with CL401, CL413 or CL531 (Example 2); conditions: 1 µg HA alone or with 0.662 nmol or 6.62 nmol test compound
[2] = test system: HA antigen (A/Singapore/GP1908/2015(IVR-180)(H1N1)pdm09); assay: ELISA of antigen-specific IgA and IgG after nasal vaccination (Example 1); conditions: HA 0.1 µg alone or with 3 µg adjuvant, twice; for antigen-specific IgA level in the nasal lavage fluid: day 38, 2^2-fold dilution, Fig. 2; for antigen-specific IgG level in serum: day 38, 2^12-fold dilution, Fig. 3
[3] = test system: A/Singapore/GP1908/2015(IVR-180)(H1N1)pdm09; conditions: HA 0.1 µg alone or with 3 µg adjuvant, nasal, twice; for Serum HI antibody titers, Geometric Mean Titer (GMT): 3-week interval, serum day 38
[4] = test system: influenza virus (A/Singapore/GP1908/2015(IVR-180)(H1N1)pdm09); conditions: HA 0.1 µg alone or with 3 µg adjuvant, twice, 3-week interval, sampled day 38, Fig. 1
[5] = test system: influenza virus: A/Guangdong-Maonan/SWL1536/2019(CNIC-1909)(H1N1); assay: Infection protection test: viral titer in nasal wash fluid (Example 5)
Protocol: (§1) For the nasal administration test, 7-week-old female BALB/c mice (9-10 mice per group) were used. Influenza virus HA protein antigen: A/Guangdong-Maonan/SWL1536/2019(CNIC-1909)(H1N1) and influenza virus: A/Guangdong-Maonan/SWL1536/2019(CNIC-1909)(H1N1) (Osaka University Microbial Disease Research Institute) were used. The vaccine formulations included HA 0.1 µg alone, and a formulation containing HA 0.1 µg co-administered with TY001 S-form at doses of 0.01-0.3 µg, and 0.01% chondroitin sulfate sodium as an additive. Vaccine solutions were administered into the nasal cavity, 5 µL into each nostril (10 µL/mouse), twice at a 3-week interval. As a control, a group subcutaneously administered with HA 0.1 µg alone was set up. Two weeks after the second administration (day 35), viral fluid was administered at 2 µL into each nostril (1x10^5 TCID50/mouse). Three days later (day 38), nasal wash fluid and serum were collected. The viral titer in the nasal wash fluid, antigen-specific IgA in nasal wash fluid, and IgG in serum were measured by ELISA.

[6] = test system: Influenza virus HA protein antigen: A/Guangdong-Maonan/SWL1536/2019(CNIC-1909)(H1N1); assay: Comparative test with various adjuvants: ELISA of antigen-specific IgA and IgG (Example 6); conditions: HA 0.1 µg + 1 µg TY001 S-form (0.01% chondroitin sulfate sodium), twice
Protocol: For the nasal administration test, 8-week-old female BALB/c mice (6 mice per group) were used. Influenza virus HA protein antigen: A/Guangdong-Maonan/SWL1536/2019(CNIC-1909)(H1N1) (Osaka University Microbial Disease Research Institute) was used. Vaccine formulations included HA 0.1 µg alone, and those co-administered intranasally with 1 µg of TY001 S-form (formulation containing 0.01% chondroitin sulfate sodium as an additive), Cholera Toxin B subunit (CTB) (Fujifilm Wako Pure Chemical Corporation), CpG ODN (ODN 1826) (InvivoGen), or Polyinosinic-polycytidylic acid (Poly(I:C)) (InvivoGen). Each vaccine solution was administered into the nasal cavity, 5 µL into each nostril (10 µL/mouse), twice at a 3-week interval. A group subcutaneously administered with HA 0.1 µg + Alum 2 mg was also used. Two weeks after the second administration (day 35), nasal wash fluid, bronchoalveolar lavage fluid, and serum were collected. Antigen-specific IgA in nasal wash fluid and bronchoalveolar lavage fluid, and IgG in serum and bronchoalveolar lavage fluid were measured by ELISA.

[7] = test system: Influenza virus HA protein antigen A/Guangdong-Maonan/SWL1536/2019(CNIC-1909)(H1N1); assay: ELISA of antigen-specific IgA and IgG, improved formulation with chondroitin sulfate sodium (Example 4); conditions: Fig. 7
Protocol: For the nasal administration test, 7-week-old female BALB/c mice were used, with 8 mice per group. Influenza virus HA protein antigen A/Guangdong-Maonan/SWL1536/2019(CNIC-1909)(H1N1) (Research Foundation for Microbial Diseases of Osaka University) was used. Vaccine groups included HA 0.1 µg alone, or HA 0.1 µg with 0.1 µg of TY001 S-form as adjuvant, and groups with/without 0.01% chondroitin sulfate sodium as an additive.
The vaccine solution was administered intranasally to mice at 5 µL per nostril (10 µL/mouse) twice, with a 3-week interval. Two weeks after the second administration (day 35), nasal lavage fluid and serum were collected, and antigen-specific IgA levels in nasal lavage fluid and IgG levels in serum were measured by ELISA.

SARS-CoV-2 S protein = assay: ELISA of antigen-specific IgA and IgG after nasal vaccination with SARS-CoV-2 antigen (Example 3); conditions: 3 µg S protein alone or with 0.3 µg TY001 S-form
[8] = test system: Influenza virus HA protein antigen: A/Guangdong-Maonan/SWL1536/2019(CNIC-1909)(H1N1); assay: ELISA of antigen-specific IgA and IgG after vaccination and virus challenge (Example 5); conditions: twice, HA 0.1 µg alone or with TY001 S-form 0.01-0.3 µg and 0.01% chondroitin sulfate sodium
Protocol: as §1

[9] = HA 0.1 µg + 0.1 µg TY001 S-form + 0.01% chondroitin sulfate sodium, compared with no additive
[10] = HA 0.1 µg + 0.1 µg TY001 S-form, nasal, twice, 3-week interval, day 35

## CCCCCCCCCCCCCCCC(=O)OCC(CSC[C@H](N)C(=O)Nc1ccc(Cn2c(O)nc3c(N)nc(NCCCC)nc32)cc1)OC(=O)CCCCCCCCCCCCCCC (some centres unmarked) [CL401]
[1]; day 0 and day 14, day 27, rank order, Fig. 4 lower panel
  antigen-specific IgG antibodies in plasma: CL413 > CL531 > CL401
[1]; day 0 and day 14, day 28, rank order, Fig. 4 upper panel
  antigen-specific IgA in nasal lavage fluid: CL413 > CL531 > CL401

## CCCCCCCCCCCCCCCC(=O)OC[C@H](CSC[C@H](N)C(=O)NCCCNCCCCNCCCNC(=O)CNC(=O)c1ccc(Cn2c(O)nc3c(N)nc(NCCCC)nc32)cc1)OC(=O)CCCCCCCCCCCCCCC [TY001 R-form, (20R,24R)-20-amino-1-(4-((6-amino-2-(butylamino)-8-hydroxy-9H-purin-9-yl)methyl)phenyl)-1,4,19-trioxo-22-thia-2,5,9,14,18-pentaazapentacosane-24,25-diyl dipalmitate]
[2]
  antigen-specific IgA level in the nasal lavage fluid: showed induction of antigen-specific IgA antibodies in the nasal cavity
  antigen-specific IgG level in serum: showed an increase
[3]
  HI antibody titer in serum: showed an increase
  Serum HI antibody titers, Geometric Mean Titer (GMT): 69.6
[4]
  viral titer in the nasal lavage fluid: showed suppression of viral infection

## CCCCCCCCCCCCCCCC(=O)OC[C@@H](CSC[C@H](N)C(=O)NCCCNCCCCNCCCNC(=O)CNC(=O)c1ccc(Cn2c(O)nc3c(N)nc(NCCCC)nc32)cc1)OC(=O)CCCCCCCCCCCCCCC [TY001 S-form, (20R,24S)-20-amino-1-(4-((6-amino-2-(butylamino)-8-hydroxy-9H-purin-9-yl)methyl)phenyl)-1,4,19-trioxo-22-thia-2,5,9,14,18-pentaazapentacosane-24,25-diyl dipalmitate]
[2]
  antigen-specific IgA level in the nasal lavage fluid: showed induction of antigen-specific IgA antibodies in the nasal cavity
  antigen-specific IgG level in serum: showed an increase
[5]; HA 0.1 µg + TY001 S-form 0.1 µg + 0.01% chondroitin sulfate sodium, Fig. 8
  viral titer in nasal wash fluid: no virus detected in any individual
[5]; HA 0.1 µg + TY001 S-form 0.3 µg + 0.01% chondroitin sulfate sodium, Fig. 8
  viral titer in nasal wash fluid: no virus detected in any individual
[5]; twice, HA 0.1 µg alone or with TY001 S-form 0.01-0.3 µg and 0.01% chondroitin sulfate sodium, virus 1x10^5 TCID50/mouse day 35, day 38, Fig. 8
  viral titer in nasal wash fluid: dose-dependent inhibition of viral infection
[6]; nasal, day 35, Fig. 10
  antigen-specific IgA in bronchoalveolar lavage fluid: also induced
  antigen-specific IgG in bronchoalveolar lavage fluid: also induced
[6]; compared with CTB, CpG ODN (ODN 1826), Poly(I:C) nasal and Alum 2 mg subcutaneous, day 35, Fig. 10
  antibody-inducing ability (antigen-specific IgA in nasal wash fluid and bronchoalveolar lavage fluid, IgG in serum and bronchoalveolar lavage fluid): stronger antibody-inducing ability at a lower dose compared to any other adjuvant
[3]
  HI antibody titer in serum: showed an increase
  Serum HI antibody titers, Geometric Mean Titer (GMT): 85.7
[4]
  viral titer in the nasal lavage fluid: showed suppression of viral infection
[7]; [9]
  antibody-inducing effect, IgA in nasal wash fluid: stronger
  antibody-inducing effect, IgG in serum: stronger
[7]; [10]
  antigen-specific IgA in nasal wash fluid: induced
  antigen-specific IgG in serum: induced
SARS-CoV-2 S protein; day 0 and 21, day 35, 2^3-fold dilution, Fig. 5
  antigen-specific IgA level in the nasal lavage fluid: showed induction of antigen-specific IgA antibodies in the nasal cavity
SARS-CoV-2 S protein; day 0 and 21, day 35, 2^8-fold dilution, Fig. 6
  antigen-specific IgG level in serum: showed an increase in antigen-specific IgG antibodies
[8]; nasal, day 38, Fig. 9
  antigen-specific IgG in serum: dose-dependent induction of nasal IgA and serum IgG
[8]; day 38, Fig. 9
  antigen-specific IgA in nasal wash fluid: dose-dependent induction of nasal IgA and serum IgG
